Data taken from patent publication US20260071150A1, “MICROBIAL ENHANCED COMPOSITIONS WHICH OVERCOME ANTAGONISTIC SURFACTANT INCOMPATIBILITY” (Stepan Company, priority 2023, published 2026).
Read-outs that look alike come from different tables or passages of the source.

Key:
[1] = tested on: Bacillus species mix in spore form; assay: un-dyed EVOO test, visual haze; conditions: for biological activity (haze), low foam alkoxylate with additives: 1.0 wt % TOXIMUL 8240, 0.09 wt % L-alanine; for biological activity (haze), magnesium salt in the additive: 0.2 wt % rhamnolipids, 0.03 wt % L-alanine, 0.03 wt % potassium nitrate, 0.14 wt % magnesium salt
Experimental: Comparative compositions were also prepared comprising the surfactant and bacterial spores, but no additive. Control compositions contained the bacterial spores, with and without additives, but no surfactant. All test, comparative and control compositions contained 2 wt % of 3.3 g/L Nutrient Mix. The pH was adjusted to pH of 7 if needed, using L-lactic acid or dilute NaOH. The compositions were photographed initially, then re-photographed after 4 and 5-7 days of orbital-mixer shaking at setting “5”, and initial and aged compositions were compared visually to determine differences.

[2] = tested on: Bacillus species mix in spore form; assay: dyed extra-virgin olive oil (EVOO) digestion test with Stat-Ease 360 optimization; assay type: cell-based
Experimental: Because EVOO is a food source for vegetative cells, lightly-dyed EVOO added to a test sample containing bacterial spores can be an indicator of biological activity. […] Each test composition also included 0.20 g of 33 g/L Nutrient Mix (30 g/L Tryptic Soy Broth BD211825 and 3 g/L Yeast Extract BD212750 at pH 7.1-7.4). The test composition is mixed, then stored at 37° C. for 2-3 days to condition the spores. […] The initial oil drop is digitally photographed, and re-photographed after 4 days of gentle swirling on an orbital shaker at a setting of 1-2 on a scale of 0-10. Oil drop sizes are determined by transferring the photographed images to a computer and measuring the major diameter of each oil drop using a Tracker.jar line profile analysis (https://physlets.org/tracker/) to determine the length of the diameter in units of pixels. Oil drop sizes of initial and digested test samples are compared. […] An increase in measured drop diameter is interpreted as a change in surface tension due to the surfactant, combined with no or minimal EVOO digestion by the bacteria.
Stat-Ease 360 software was used to generate each design of experiment sample group, model the test results from the resulting data, and generate statistics for the optimal models. The models were then used to generate an optimization plot using Stat-Ease 360's Numerical Optimization function. The optimization includes a contour plot of “desirability” of component levels for the defined design space. These plots visually represent the complex relationships between the surfactant and additive components and show where desired performance is high and where it is low or zero.

[3] = physical stability (spore dispersion) of test compositions; assay type: physicochemical
Experimental: The alpha sulfonated alkyl ester test compositions from Example 3 were used for this stability assessment because, unexpectedly, the spores in some of the test compositions remained fully dispersed in the compositions after sitting for 1 week, even though the test compositions were at use dilution and water thin. Physical stability of the test compositions was assessed by photographing the test compositions in the parent sample jars (from which the Example 3 samples were taken), looking down on the sample jars, and quantifying the degree of precipitation via Tracker.jar image analysis.

Bacillus spore blend = assay: diluted concentrate EVOO haze test; assay type: cell-based
Experimental: Concentrates of two test formulations were prepared comprising the alkyl ether sulfate surfactant at 7.5 wt % actives, a Bacillus spore blend at 10.0 wt % (5×10^9 CFU/g), a mixture of 0.75 wt % potassium chloride and 0.75 wt % magnesium nitrate, and water to total 100%. Castor oil 36EO alkoxylate (TOXIMUL® 8240) (100% active) in an amount of 1.5 wt % was added to one of the test formulations. Two comparative concentrate compositions were also prepared. One comparative composition comprised the same amount of surfactant and spores but no additive or TOXIMUL® 8240, and the other comparative composition comprised the same amount of surfactant, spores, and TOXIMUL® 8240, but no additive. A total of 20 g of each concentrate composition was prepared.
For the test, each concentrate composition was diluted to 2.0 wt % (1×10^8 CFU/g) in a 4 oz glass jar, with 1 wt % 33 g/L Nutrient (30 g/L Tryptic Soy Broth+3 g/L Yeast Extract), 0.2 wt % Extra Virgin Olive Oil (EVOO), and water to total 50.0 g total weight. The jars were mixed on the orbital shaker for 15-30 minutes and initially photographed, and then mixed on the orbital shaker for 7 days and re-photographed.
Concentrates of the four test formulations were prepared comprising the calcium alkyl benzene sulfonate surfactant at 7.5 wt % actives, a Bacillus spore blend at 10.0 wt % (5×10^9 CFU/g), 1.5 wt % of the respective additive mixture, and water to total 100%. Each concentrate was 20 g total weight. Two control concentrates were also prepared. The positive control concentrate contained 10 wt % of the Bacillus spore blend and water, and the negative control concentrate contained 10 wt % of the Bacillus spore blend, 7.5 wt % surfactant actives, and water.

[4] = tested on: beneficial microorganisms; assay: compatibility of surfactants and builders with beneficial microorganisms; assay type: cell-based
Experimental: The compositions of the present technology comprise at least one surfactant that is incompatible with a beneficial microorganism. Incompatibility between a surfactant and a beneficial microorganism has been investigated in various ways, such as a standard Zone of Inhibition test, a standard agar plating test, or a standard resazurin (7-hydroxy-10-oxidophenoxazin-10-ium-3-one, sodium) (a blue fluorogenic dye) compatibility assay. In a Zone of Inhibition test, microorganisms are grown, cultured, diluted down to target levels, and then applied to a Petri dish containing agar nutrients. Test samples containing the surfactant of interest are diluted and loaded into an agar well created within the agar nutrient. The plates are incubated and microorganism growth is allowed to develop. […] This halo is referred to as the zone of inhibition. The larger the zone, the bigger the effect of inhibition. Major suitability limitations for non-antibiotics test samples for this test method are inherent large dilution of active, agar diffusion challenges, and nutrient media incompatibilities (neutralization, precipitation, etc). Although this method has been used in the medical field for antibiotics very successfully for decades, it has low suitability when testing non-antibiotic samples. In a standard agar plating test, test samples containing the surfactant of interest and microorganisms are exposed, diluted several orders of magnitude, and plated onto a nutritive agar that is incubated. After an incubation period appropriate for the species, the microorganism growth pattern is evaluated against appropriate controls. […] The test samples are incubated and then inspected for colorometric and fluorescence change. Test samples that are blue and have low fluorescence indicate no biological activity and incompatibility between the surfactant and the microorganism. Test samples that are pink and have high fluorescence indicate biological activity and compatibility of the surfactant with the microorganism. […]

[5] = surfactant 0.2 wt % active, 0.09 wt % potassium nitrate, 0.02 wt % magnesium chloride hexahydrate, 7 days
[6] = alkyl sarcosinate MAPROSYL 30-B, FIG. 3
[7] = alpha-sulfonated alkyl ester ALPHA-STEP PC-48, additives with glucose, FIG. 5
[8] = alpha-sulfonated alkyl ester ALPHA-STEP PC-48, additives without glucose, FIG. 4
[9] = concentrate 7.5 wt % surfactant actives diluted to 2.0 wt %

## C12-C14 monoethanolamide-7EO-4PO [C42 MEA Amide-7EO-4PO]
[1]; [5]
  biological activity (haze), low foam alkoxylate with additives: increased biological activity

## C[C@H](N)C(=O)O [L-alanine]
[2]; [6]
  desirability (optimization contour plot of EVOO digestion): high desirability
[2]; [7]
  desirability (optimization contour plot of EVOO digestion): low to zero desirability
[2]; [8]
  desirability (optimization contour plot of EVOO digestion): high desirability
[2]; rhamnolipid surfactant, additives without glucose, FIG. 1
  desirability (optimization contour plot of EVOO digestion): high desirability
[3]
  desirability (contour plot combining digestion and physical stability): higher desirability

## sodium laureth sulfate [alkyl ether sulfate]
Bacillus spore blend; [9]
  haze after 7 days, 1.5 wt % TOXIMUL 8240, no additive: lack of haze
  haze after 7 days, no additive, no TOXIMUL 8240: lack of haze
Bacillus spore blend; concentrate 7.5 wt % surfactant actives, 0.75 wt % potassium chloride, 0.75 wt % magnesium nitrate, 1.5 wt % TOXIMUL 8240, diluted to 2.0 wt %
  haze after 7 days, additive and TOXIMUL 8240: increase in haze
Bacillus spore blend; concentrate 7.5 wt % surfactant actives, 0.75 wt % potassium chloride, 0.75 wt % magnesium nitrate, diluted to 2.0 wt %
  haze after 7 days, additive, no TOXIMUL 8240: lack of haze

## O=S(=O)([O-])[O-].[Mg+2] [MgSO4, magnesium sulfate]
[1]; 7 days
  biological activity (haze), magnesium salt in the additive: restore biological activity

## O.O.O=C([O-])CC(O)(CC(=O)[O-])C(=O)[O-].[Na+].[Na+].[Na+] [sodium citrate dihydrate]
[4]
  compatibility with beneficial microorganisms: compatible

## isodecyl-1PO-8EO [DA-1PO-8EO]
[1]; [5]
  biological activity (haze), low foam alkoxylate with additives: increased biological activity
[1]; surfactant 0.2 wt % active, 1.0 wt % TOXIMUL 8240, no additive, 7 days
  biological activity (haze), low foam alkoxylate without additives: the most sign of inhibition

## O=[N+]([O-])[O-].O=[N+]([O-])[O-].[Mg+2] [Mg(NO3)2, magnesium nitrate]
[1]; 7 days
  biological activity (haze), magnesium salt in the additive: restore biological activity

## O=[N+]([O-])[O-].[K+] [KNO3, potassium nitrate]
[2]; [6]
  desirability (optimization contour plot of EVOO digestion): high desirability
[2]; [7]
  desirability (optimization contour plot of EVOO digestion): high desirability
[2]; [8]
  desirability (optimization contour plot of EVOO digestion): high desirability
[3]; alpha sulfonated alkyl ester test compositions of Example 3, FIG. 10
  desirability (contour plot combining digestion and physical stability): higher desirability

## O=C([O-])CC(O)(CC(=O)[O-])C(=O)O.[Mg+2] [Mg(Citrate) dibasic]
[1]; 7 days
  biological activity (haze), magnesium salt in the additive: restore biological activity

## calcium alkyl benzene sulfonate
Bacillus spore blend; 7.5 wt % surfactant actives, 0.5 wt % of each of L-alanine, Mg(NO3)2 and KCl, diluted to 2.0 wt %
  haze after 7 days, equal amounts of the additive components: some increase in haze
Bacillus spore blend; 7.5 wt % surfactant actives, 1.0 wt % L-Alanine + 0.25 wt % each of KCl and Mg(NO3)2, diluted to 2.0 wt %
  haze after 7 days, L-alanine as the majority additive component: some increase in haze
Bacillus spore blend; 7.5 wt % surfactant actives, 1.0 wt % Mg(NO3)2 and 0.25 wt % each of L-alanine and KCl, diluted to 2.0 wt %
  haze after 7 days, Mg(NO3)2 as the majority additive component: some increase in haze
Bacillus spore blend; [9]
  haziness after 7 days, surfactant without additive (negative control): reduced haziness

## C=CCCCCCCCC(=O)N(C)C [STEPOSOL MET-10U]
[4]
  compatibility with beneficial microorganisms: compatible

## cocoamidopropyl hydroxysultaine [AMPHOSOL® CS-50]
[1]; surfactant 0.2 wt % active, 0.09 wt % L-alanine, 0.09 wt % potassium nitrate, 0.02 wt % magnesium chloride hexahydrate, 7 days
  biological activity (haze) of bacterial spores, surfactant with additives: shows haze, indicative of biological activity
[1]; surfactant 0.2 wt % active, no additive, 1×10^7 CFU/g, 7 days orbital shaking
  biological activity (haze) of bacterial spores, surfactant without additives: inhibits biological activity

## O=C([O-])[C@H](O)[C@@H](O)[C@H](O)[C@H](O)CO.[Na+] [sodium gluconate]
[4]
  compatibility with beneficial microorganisms: compatible
